Key:
[1] = Pre-Micronization
[2] = Differential scanning calorimetry (thermal stability); type: physicochemical; conditions: DSC trace, 10° C./min
Method: Differential scanning calorimetry (DSC) was performed using a TA Instruments Model Q-10 module with a Thermal Analyst controller. Data were collected and analyzed using TA Instruments Thermal Solutions software. A sample of about 1 mg was accurately weighed into an aluminum pan with lid. The sample was evaluated using a linear heating ramp of 10° C./min from ambient temperature to approximately 250° C. The DSC cell was purged with dry nitrogen during use.

[3] = pH 4.5
Method: A solution was prepared with 0.1 mg/mL freebase equivalents (using a crystalline mononapadisylate salt prepared as described in Example 2) in 10 mM citrate buffered normal saline, pH 4.5. […] Less than 0.5% degradation was observed after storage for one month at 40° C./75% RH.

[4] = Dynamic moisture sorption (DMS) assessment; type: physicochemical
Method: A dynamic moisture sorption (DMS) assessment (also known as a moisture sorption-desorption profile) was performed for samples of the crystalline naphthalene-1,5-disulfonic acid salts using a VTI atmospheric microbalance, SGA-100 system (VTI Corp., Hialeah, Fla. 33016). A sample size of approximately 10 mg was used and the humidity was set at the ambient value at the start of the analysis. A typical DMS analysis consisted of three scans: ambient to 2% relative humidity (RH), 2% RH to 90% RH, 90% RH to 5% RH at a scan rate of 5% RH/step. The mass was measured every two minutes and the RH was changed to the next value (+/−5% RH) when the mass of the sample was stable to within 0.01% for 5 consecutive points.

[5] = 6 weeks; −20° C. closed, 40° C./75% RH open and closed, 50° C. closed; all conditions
Method: Samples of the crystalline mononapadisylate salt of Example 2, about 200 mg each, were stored in multiple 3 mL borosilicate vials at −20° C. (closed container), 40° C./75% RH (open and closed container), and at 50° C. (closed container). At specific intervals, the entire contents of a representative vial was analyzed by the following HPLC method:
Column: Agilent Zorbox SB-C18, 4.6×250 mm, 5 μm; Mobile Phase A: 98% water, 2% ACN, 0.1% TFA; Mobile Phase B: 10% water, 90% ACN; 0.1% TFA; Flow rate: 1 mL/min; Injection Volume: 20 μL; Detector: 220 nm; Gradient-Time in minutes (% Mobile Phase B): 0.0 (10); 4.00 (20); 26.00 (28); 34.40 (100); 38.40 (100); 38.50 (10); and 45.00 (10). […] These stock solutions were diluted to 1 mg/mL in 10% ACN for injection onto the HPLC.

O=C(CCN1CCC(OC(=O)Nc2ccccc2-c2ccccc2)CC1)NCCCCCNCc1ccc(O)cc1.O=S(=O)(O)c1cccc2c(S(=O)(=O)O)cccc12 [Crystalline Mononapadisylate Salt of Biphenyl-2-ylcarbamic Acid 1-2-[5-(4-Hydroxybenzylamino)pentylcarbamoyl]ethyl]piperidin-4-yl Ester]
particle size D (v, 0.1) [1]: 2.5 μm | particle size D (v, 0.5) [1]: 9.4 μm | particle size D (v, 0.9) [1]: 22.1 μm | thermal decomposition temperature (no thermal decomposition below) [2]: ≥ 225 °C | degradation in solution ([3]; 0.1 mg/mL freebase equivalents in 10 mM citrate buffered normal saline, one month at 40° C./75% RH): Less than 0.5% | solubility ([3]; 10 mM citrate buffered normal saline): approximately 0.4 mg/mL | sorption/desorption profile and hygroscopicity ([4]; DMS trace): reversible sorption/desorption profile with low hygroscopicity | weight gain ([4]; exposed to 2-90% RH): 4.5% | weight gain ([4]; humidity range of 40-70% RH): 0.7% | weight gain ([4]; humidity range of 40-75% RH): 0.8% | weight gain ([4]; humidity range of 40-75% RH, listed as crystalline mononapadisylate salt of the compound of formula I): less than 0.8% | change in chemical purity (HPLC) [5]: no detectable change | change in the appearance of the material [5]: no observable change

From patent publication US20060205949A1, “Crystalline forms of a biphenyl compound” (THERAVANCE, INC., priority 2005, published 2006)
